Molecules are shown by their SMILES. Like-named read-outs stand apart in the source and are kept apart here.

Experimental findings from publication PMC4457528, “Identification of Novel Small Molecule Inhibitors of Oncogenic RET Kinase” (PLoS ONE, 2015) are described below.

Holding throughout (test): KinomeScan kinase panel, single concentration 10 µM
Assay type in all cases: binding

Assay [1] has as its target T1, KinomeScan kinase panel (Homo sapiens, UniProt P49674).
T1 construct: purchased DiscoveRx (KinomeScan)
The following applies: CSNK1E, 10 µM; read-out: score (%).

The target of assay [2] is T2, KinomeScan kinase panel (Homo sapiens, UniProt P51955).
T2 construct: purchased DiscoveRx (KinomeScan)
T2 sequence (P51955 1-445): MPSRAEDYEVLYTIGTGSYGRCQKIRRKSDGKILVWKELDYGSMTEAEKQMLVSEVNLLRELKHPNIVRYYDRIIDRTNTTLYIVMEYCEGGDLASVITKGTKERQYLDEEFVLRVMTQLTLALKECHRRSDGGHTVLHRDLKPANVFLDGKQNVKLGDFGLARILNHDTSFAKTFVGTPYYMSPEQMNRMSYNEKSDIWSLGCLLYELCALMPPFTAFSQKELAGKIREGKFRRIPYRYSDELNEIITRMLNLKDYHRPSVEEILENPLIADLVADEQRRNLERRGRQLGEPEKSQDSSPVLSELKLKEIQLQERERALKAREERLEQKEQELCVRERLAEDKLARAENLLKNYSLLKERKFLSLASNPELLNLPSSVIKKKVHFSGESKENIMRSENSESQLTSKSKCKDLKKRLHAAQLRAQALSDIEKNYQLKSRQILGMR
The following applies: NEK2, 10 µM; read-out: score (%).

Assay [3] concerns the target T3, KinomeScan kinase panel (Homo sapiens, UniProt Q04759).
T3 construct: purchased DiscoveRx (KinomeScan)
The following applies: 10 µM, read-out: score (%).

Assay [4] deals with T4, KinomeScan kinase panel (Homo sapiens, UniProt P31152).
T4 construct: purchased DiscoveRx (KinomeScan)
T4 sequence (P31152 whole entry): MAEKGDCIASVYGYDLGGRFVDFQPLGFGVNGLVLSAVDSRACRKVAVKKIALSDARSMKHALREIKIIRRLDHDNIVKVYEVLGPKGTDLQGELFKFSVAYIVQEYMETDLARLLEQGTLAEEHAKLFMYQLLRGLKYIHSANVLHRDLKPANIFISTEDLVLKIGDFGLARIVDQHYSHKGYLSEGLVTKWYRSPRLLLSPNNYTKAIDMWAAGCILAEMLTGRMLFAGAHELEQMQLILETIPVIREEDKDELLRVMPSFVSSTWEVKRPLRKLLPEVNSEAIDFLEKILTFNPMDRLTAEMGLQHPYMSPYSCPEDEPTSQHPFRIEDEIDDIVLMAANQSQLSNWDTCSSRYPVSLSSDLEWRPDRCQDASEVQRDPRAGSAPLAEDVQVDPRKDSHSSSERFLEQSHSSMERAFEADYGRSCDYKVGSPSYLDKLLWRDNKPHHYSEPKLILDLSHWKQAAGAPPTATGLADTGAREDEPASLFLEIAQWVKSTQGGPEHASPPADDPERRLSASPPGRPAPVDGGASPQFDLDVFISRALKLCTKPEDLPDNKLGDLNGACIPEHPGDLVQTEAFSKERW
The following applies: ERK4, 10 µM; read-out: score (%).

For assay [5], the target named is T5, KinomeScan kinase panel (Homo sapiens, UniProt O94804).
T5 construct: purchased DiscoveRx (KinomeScan)
The note with it: LOK, 10 µM.

Assay [6] deals with T6, KinomeScan kinase panel (Homo sapiens, UniProt O96013).
T6 construct: purchased DiscoveRx (KinomeScan)
T6 sequence (O96013 whole entry): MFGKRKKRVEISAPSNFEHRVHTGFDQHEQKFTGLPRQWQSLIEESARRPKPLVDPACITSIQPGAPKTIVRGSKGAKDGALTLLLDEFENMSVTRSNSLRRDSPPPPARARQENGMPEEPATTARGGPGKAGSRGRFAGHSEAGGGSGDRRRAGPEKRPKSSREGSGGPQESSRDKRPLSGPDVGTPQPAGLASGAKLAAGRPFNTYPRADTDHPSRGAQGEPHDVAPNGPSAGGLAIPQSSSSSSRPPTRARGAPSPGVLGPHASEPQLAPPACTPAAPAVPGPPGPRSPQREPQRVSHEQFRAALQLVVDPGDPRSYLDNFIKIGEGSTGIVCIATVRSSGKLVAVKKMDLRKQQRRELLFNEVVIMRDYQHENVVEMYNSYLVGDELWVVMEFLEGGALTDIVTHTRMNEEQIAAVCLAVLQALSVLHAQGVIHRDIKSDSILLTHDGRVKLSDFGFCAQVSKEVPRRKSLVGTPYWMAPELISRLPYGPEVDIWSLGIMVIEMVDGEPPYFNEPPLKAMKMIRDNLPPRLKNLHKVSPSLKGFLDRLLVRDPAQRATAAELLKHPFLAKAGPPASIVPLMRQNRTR
The following applies: PAK4, 10 µM; read-out: score (%).

Assay [7] deals with T7, KinomeScan kinase panel (Homo sapiens, UniProt Q9H3Y6).
T7 construct: purchased DiscoveRx (KinomeScan)
The following applies: 10 µM, read-out: score (%).

Assay [8] concerns the target T8, KinomeScan kinase panel (Homo sapiens, UniProt P09619).
T8 construct: purchased DiscoveRx (KinomeScan)
The following applies: PDGFRB, 10 µM; read-out: score (%).

Assay [9] has as its target T9, KinomeScan kinase panel (Homo sapiens, UniProt Q16512).
T9 construct: purchased DiscoveRx (KinomeScan)
The note with it: PKN1, 10 µM; read-out: score (%).

The target of assay [10] is T10, KinomeScan kinase panel (Homo sapiens, UniProt P53671).
T10 construct: purchased DiscoveRx (KinomeScan)
The note with it: LIMK2, 10 µM; read-out: score (%).

For assay [11], the target named is T11, KinomeScan kinase panel (Homo sapiens, UniProt P54762).
T11 construct: purchased DiscoveRx (KinomeScan)
T11 sequence (P54762 18-984): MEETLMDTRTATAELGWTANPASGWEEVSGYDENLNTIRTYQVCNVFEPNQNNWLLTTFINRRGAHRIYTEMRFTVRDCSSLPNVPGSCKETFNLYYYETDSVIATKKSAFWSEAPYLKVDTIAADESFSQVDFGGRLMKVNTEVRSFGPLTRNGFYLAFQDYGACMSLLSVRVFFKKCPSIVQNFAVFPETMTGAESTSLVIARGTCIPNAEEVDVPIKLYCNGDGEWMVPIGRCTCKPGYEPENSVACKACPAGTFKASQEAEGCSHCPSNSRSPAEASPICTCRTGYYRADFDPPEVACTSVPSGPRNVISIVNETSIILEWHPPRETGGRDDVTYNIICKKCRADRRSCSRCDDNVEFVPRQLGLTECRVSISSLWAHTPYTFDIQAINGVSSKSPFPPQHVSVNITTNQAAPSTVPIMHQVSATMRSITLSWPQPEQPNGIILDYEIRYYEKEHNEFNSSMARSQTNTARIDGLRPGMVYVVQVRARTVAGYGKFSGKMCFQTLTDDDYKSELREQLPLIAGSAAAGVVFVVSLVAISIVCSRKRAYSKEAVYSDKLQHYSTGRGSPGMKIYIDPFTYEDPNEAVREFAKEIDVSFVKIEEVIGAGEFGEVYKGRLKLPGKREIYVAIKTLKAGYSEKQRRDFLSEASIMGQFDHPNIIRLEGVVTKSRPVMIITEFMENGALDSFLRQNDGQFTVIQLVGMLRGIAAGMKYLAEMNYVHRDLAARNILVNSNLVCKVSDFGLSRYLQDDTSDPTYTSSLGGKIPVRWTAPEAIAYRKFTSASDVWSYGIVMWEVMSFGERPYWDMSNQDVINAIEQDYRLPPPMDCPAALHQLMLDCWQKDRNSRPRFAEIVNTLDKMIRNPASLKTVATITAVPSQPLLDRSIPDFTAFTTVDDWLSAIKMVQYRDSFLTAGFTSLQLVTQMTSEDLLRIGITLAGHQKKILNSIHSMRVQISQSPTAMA
The following applies: EPHB1, 10 µM; read-out: score (%).

Assay [12] addresses T12, KinomeScan kinase panel (Homo sapiens, UniProt P11309).
T12 construct: purchased DiscoveRx (KinomeScan)
The following applies: PIM1, 10 µM; read-out: score (%).

Assay [13] deals with T13, KinomeScan kinase panel (Homo sapiens, UniProt P42685).
T13 construct: purchased DiscoveRx (KinomeScan)
T13 sequence (P42685 whole entry): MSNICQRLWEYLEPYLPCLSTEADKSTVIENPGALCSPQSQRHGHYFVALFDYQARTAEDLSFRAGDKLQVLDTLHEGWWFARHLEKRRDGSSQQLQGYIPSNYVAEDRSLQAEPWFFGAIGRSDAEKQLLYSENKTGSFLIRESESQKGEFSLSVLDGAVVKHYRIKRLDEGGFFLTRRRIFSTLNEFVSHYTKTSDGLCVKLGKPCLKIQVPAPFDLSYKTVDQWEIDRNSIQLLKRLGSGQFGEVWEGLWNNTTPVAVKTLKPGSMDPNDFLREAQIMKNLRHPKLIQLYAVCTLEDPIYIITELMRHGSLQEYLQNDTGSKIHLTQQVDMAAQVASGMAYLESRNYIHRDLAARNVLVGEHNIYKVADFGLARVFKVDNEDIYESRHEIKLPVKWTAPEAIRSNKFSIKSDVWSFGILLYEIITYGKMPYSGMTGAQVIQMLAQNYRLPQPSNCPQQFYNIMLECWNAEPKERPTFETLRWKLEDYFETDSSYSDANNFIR
The note with it: FRK, 10 µM; read-out: score (%).

Assay [14] deals with T14, KinomeScan kinase panel (Homo sapiens, UniProt P00533, L861Q).
T14 construct: purchased DiscoveRx (KinomeScan)
T14 sequence (P00533 25-1210 L861Q): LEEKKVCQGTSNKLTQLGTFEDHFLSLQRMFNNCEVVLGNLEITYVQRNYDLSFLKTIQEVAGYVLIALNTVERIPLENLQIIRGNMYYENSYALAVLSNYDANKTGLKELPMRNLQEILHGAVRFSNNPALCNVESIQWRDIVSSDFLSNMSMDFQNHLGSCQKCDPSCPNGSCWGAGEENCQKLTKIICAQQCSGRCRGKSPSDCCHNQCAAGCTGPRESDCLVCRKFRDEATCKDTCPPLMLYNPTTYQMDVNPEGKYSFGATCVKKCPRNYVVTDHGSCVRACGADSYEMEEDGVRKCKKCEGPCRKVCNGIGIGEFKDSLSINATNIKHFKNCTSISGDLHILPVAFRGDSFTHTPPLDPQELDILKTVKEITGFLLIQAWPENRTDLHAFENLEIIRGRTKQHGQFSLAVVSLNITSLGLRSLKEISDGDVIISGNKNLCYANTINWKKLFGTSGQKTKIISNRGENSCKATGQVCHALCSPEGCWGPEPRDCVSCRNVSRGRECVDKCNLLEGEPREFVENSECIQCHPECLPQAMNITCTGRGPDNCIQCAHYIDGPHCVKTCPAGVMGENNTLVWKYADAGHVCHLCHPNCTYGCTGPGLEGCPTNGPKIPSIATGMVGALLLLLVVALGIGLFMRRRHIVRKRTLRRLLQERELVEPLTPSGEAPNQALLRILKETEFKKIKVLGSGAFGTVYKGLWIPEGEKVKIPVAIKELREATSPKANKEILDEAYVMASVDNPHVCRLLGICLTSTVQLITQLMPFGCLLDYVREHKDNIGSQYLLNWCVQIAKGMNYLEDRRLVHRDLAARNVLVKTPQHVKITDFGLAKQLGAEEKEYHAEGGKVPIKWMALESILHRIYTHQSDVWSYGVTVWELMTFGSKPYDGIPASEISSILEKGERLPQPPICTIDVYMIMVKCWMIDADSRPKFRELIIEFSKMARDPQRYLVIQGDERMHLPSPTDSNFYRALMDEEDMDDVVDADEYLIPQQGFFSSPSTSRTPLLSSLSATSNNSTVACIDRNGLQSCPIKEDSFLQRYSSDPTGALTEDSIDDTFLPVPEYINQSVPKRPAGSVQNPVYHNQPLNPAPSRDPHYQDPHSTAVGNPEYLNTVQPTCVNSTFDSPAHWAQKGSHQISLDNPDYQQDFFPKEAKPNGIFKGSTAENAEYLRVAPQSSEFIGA
The note with it: EGFR(L861Q), 10 µM.

Assay [15] has as its target T15, KinomeScan kinase panel (Homo sapiens, UniProt Q9HBH9).
T15 construct: purchased DiscoveRx (KinomeScan)
The note with it: MKNK2, 10 µM; read-out: score (%).

T1 sequence (P49674 whole entry): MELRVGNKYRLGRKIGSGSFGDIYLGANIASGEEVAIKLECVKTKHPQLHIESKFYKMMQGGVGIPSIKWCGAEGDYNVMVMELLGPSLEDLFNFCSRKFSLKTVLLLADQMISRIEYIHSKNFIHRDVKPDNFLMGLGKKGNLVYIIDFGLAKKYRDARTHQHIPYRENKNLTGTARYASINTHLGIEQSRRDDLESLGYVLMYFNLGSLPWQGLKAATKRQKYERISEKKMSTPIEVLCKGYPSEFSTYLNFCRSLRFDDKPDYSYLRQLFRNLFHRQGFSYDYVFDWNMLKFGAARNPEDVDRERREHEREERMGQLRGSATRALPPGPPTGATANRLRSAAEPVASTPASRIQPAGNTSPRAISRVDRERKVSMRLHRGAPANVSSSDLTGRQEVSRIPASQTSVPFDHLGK
T8 sequence (P09619 33-1106): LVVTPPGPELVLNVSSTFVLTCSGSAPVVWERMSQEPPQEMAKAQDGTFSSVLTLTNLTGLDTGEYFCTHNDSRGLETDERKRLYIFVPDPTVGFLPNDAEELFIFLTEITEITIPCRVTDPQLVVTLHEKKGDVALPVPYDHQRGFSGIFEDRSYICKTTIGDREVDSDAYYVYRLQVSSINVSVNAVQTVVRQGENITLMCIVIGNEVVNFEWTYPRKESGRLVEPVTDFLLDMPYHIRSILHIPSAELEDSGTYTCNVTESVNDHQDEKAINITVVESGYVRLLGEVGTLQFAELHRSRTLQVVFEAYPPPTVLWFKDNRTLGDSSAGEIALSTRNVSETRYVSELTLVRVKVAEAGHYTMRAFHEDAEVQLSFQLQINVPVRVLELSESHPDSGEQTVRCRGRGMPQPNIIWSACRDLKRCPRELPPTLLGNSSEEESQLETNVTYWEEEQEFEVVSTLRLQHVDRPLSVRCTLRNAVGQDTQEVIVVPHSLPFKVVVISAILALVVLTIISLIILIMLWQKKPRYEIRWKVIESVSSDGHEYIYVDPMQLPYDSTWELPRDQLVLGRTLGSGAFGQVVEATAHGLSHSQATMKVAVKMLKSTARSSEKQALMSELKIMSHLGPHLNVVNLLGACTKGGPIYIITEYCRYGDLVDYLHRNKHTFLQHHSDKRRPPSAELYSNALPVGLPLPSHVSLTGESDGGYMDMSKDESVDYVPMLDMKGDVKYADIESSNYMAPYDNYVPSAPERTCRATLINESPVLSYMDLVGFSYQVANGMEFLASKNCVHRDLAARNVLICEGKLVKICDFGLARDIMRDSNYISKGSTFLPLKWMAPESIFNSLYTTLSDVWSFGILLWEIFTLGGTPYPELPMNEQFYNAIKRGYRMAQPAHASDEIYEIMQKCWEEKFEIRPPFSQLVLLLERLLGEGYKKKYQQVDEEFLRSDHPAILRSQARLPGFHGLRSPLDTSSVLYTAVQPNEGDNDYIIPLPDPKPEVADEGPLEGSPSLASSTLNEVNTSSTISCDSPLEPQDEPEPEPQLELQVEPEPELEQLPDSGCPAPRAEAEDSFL
T15 sequence (Q9HBH9 whole entry): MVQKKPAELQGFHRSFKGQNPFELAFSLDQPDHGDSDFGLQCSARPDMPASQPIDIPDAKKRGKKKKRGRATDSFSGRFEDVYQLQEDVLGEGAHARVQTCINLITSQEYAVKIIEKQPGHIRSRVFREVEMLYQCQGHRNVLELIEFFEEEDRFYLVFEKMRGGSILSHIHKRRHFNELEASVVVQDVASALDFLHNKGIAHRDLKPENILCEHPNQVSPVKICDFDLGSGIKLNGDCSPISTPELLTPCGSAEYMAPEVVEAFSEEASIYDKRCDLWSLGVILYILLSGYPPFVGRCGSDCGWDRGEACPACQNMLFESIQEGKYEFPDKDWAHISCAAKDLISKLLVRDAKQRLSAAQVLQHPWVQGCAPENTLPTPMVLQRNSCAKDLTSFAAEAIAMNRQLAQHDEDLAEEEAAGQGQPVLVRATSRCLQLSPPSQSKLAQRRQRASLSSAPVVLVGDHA

As for `CCN1CCN(Cc2ccc(NC(=O)c3ccc(C)c(NC(=O)c4cncc(-c5cccs5)c4)c3)cc2C(F)(F)F)CC1` [ALW-II-41-27], the remaining binding at 10 µM on KinomeScan kinase panel [1] was 0.8%; at KinomeScan kinase panel [2] it was more than 30%; on KinomeScan kinase panel [3] (PRKCQ), 22%; on KinomeScan kinase panel [4], more than 30%; on KinomeScan kinase panel [6], more than 30%; at KinomeScan kinase panel [7] (kinase SRMS) it was 2.8%. The remaining binding at 10 µM is 0% on KinomeScan kinase panel [8]; more than 30% at KinomeScan kinase panel [9]; 31% on KinomeScan kinase panel [10]; 0.15% on KinomeScan kinase panel [11]; more than 30% on KinomeScan kinase panel [12]; 0.2% on KinomeScan kinase panel [13]. In addition, on KinomeScan kinase panel [15], the remaining binding at 10 µM was more than 30%. Moreover, the “score (%)” value at KinomeScan kinase panel [5] is given as 0.05%; at KinomeScan kinase panel [14], 0%.

Consider `CCN1CCN(Cc2ccc(NC(=O)c3ccc(C)c(/C=C/c4cnc5[nH]ccc5c4Cl)c3)cc2C(F)(F)F)CC1` [HG-6-63-01, (E)-3-(2-(4-chloro-1H-pyrrolo[2,3-b]pyridin-5-yl)vinyl)-N-(4-((4-ethylpiperazin-1-yl)methyl)-3-(trifluoromethyl)phenyl)-4-methylbenzamide], for which the remaining binding at 10 µM at KinomeScan kinase panel [1] was 15%; at KinomeScan kinase panel [2] it was more than 30%; on KinomeScan kinase panel [3] (PRKCQ) it was more than 30%; at KinomeScan kinase panel [4], more than 30%; at KinomeScan kinase panel [6], more than 30%; on KinomeScan kinase panel [7] (SRMS), 23%. The remaining binding at 10 µM at KinomeScan kinase panel [8] was 0%; at KinomeScan kinase panel [9], more than 30%; at KinomeScan kinase panel [10], 6.6%; on KinomeScan kinase panel [11], 0.7%; on KinomeScan kinase panel [12] it was more than 30%; on KinomeScan kinase panel [13], 0.55%. Also, the remaining binding at 10 µM at KinomeScan kinase panel [15] was determined as 0.75%. Further, the “score (%)” value at KinomeScan kinase panel [5] and at KinomeScan kinase panel [14] was 0% each time.

For the molecule `CCN1CCN(Cc2ccc(NC(=O)c3ccc(C)c(C#Cc4cccnc4)c3)cc2C(F)(F)F)CC1` [XMD15-44], the remaining binding at 10 µM on KinomeScan kinase panel [1] was more than 30%; on KinomeScan kinase panel [2] it was more than 30%; at KinomeScan kinase panel [3] (kinase PRKCQ), 55%; at KinomeScan kinase panel [4], more than 30%; on KinomeScan kinase panel [6], 100%; at KinomeScan kinase panel [7] (kinase SRMS) it was 0%. Also, the remaining binding at 10 µM worked out at 0% on KinomeScan kinase panel [8]; 85% at KinomeScan kinase panel [9]; 11% on KinomeScan kinase panel [10]; 0.5% at KinomeScan kinase panel [11]; 84% on KinomeScan kinase panel [12]; 0.15% on KinomeScan kinase panel [13]. Moreover, at KinomeScan kinase panel [15], the remaining binding at 10 µM is 0%. Also, the “score (%)” value amounted to 0% on KinomeScan kinase panel [5] and 0.2% at KinomeScan kinase panel [14].
